Read-outs that look alike come from different tables or passages of the source.
What was measured:
[1] = system: Human keratinocyte HaCaT cell lines; experiment: Anti-oxidative effect using HaCaT model (lipid peroxidation assay kit); type: cell-based; details: for activity at 100 µM: Homo sapiens, read-out: Lipid peroxidation (%)
Protocol: The hydroxybenzamide compounds prepared in Examples 1-8 were determined for their anti-oxidative effects.
Human keratinocyte HaCaT cell lines were pipetted into 60 mm dishes in a cell count of 1.0×10^6 cells per dish, and were cultured by using a DMEM (FBS 10%) medium containing penicillin/streptomycin added thereto under the conditions of 37° C./5% CO2 for 1 day. Then, the cultured product was treated with each of the hydroxybenzamide compounds according to Examples 1˜8 in a concentration of 10˜4 mol. Also, the same cultured product was treated with the same concentration of tocopherol and resveratrol for 24 hours. In addition to the above, the cultured product was treated with t-BHT (t-butyl hydroperoxide) and cultured under the conditions of 37° C./5% CO2 for 4 hours to obtain cells. The cells were subjected to lysis by repeating freezing/thawing cycles. The following Test procedure was based on the method described in the assay kit used in this example.
In this example, Calbiochem Lipid peroxidation assay kit (Cat. No. 437634) was used as a test reagent, and lipid peroxidation was determined by using the mechanism of formation of stable compounds at 586 nm from the reaction between the above reagent and ester peroxides linked to long-chain unsaturated fatty acids, such as malondialdehyde (MDA) and 4-hydroxyalkenal (4-hydroxy-2(E)-nonenal, 4-HNE).

procollagen type(I) = experiment: Stimulation of collagen biosynthesis (procollagen type(I) ELISA); type: cell-based; details: Fibroblasts, 10 μM in serum-free medium, 24 hours, non-treated group taken as 100; for activity at 10 µM: Fibroblast
Protocol: The hydroxybenzamide compounds according to Examples 18 were determined for their effects of stimulating collagen biosynthesis, and the results were compared to the effects obtained from resveratrol and tocopherol.
Fibroblasts were seeded into a 24-well microtiter plate in a cell count of 10^5 cells per well and cultured to a growth level of 90%. The cultured product was further cultured in a serum-free DMEM medium for 24 hours. Next, the cultured product was treated with the hydroxybenzamide compounds according to Examples 1˜8, resveratrol and tocopherol, dissolved in a serum-free medium at a concentration of 10 μM, and then was cultured in a CO2 incubator for 24 hours. After decanting the supernatant, procollagen was determined by using a procollagen type(I) ELISA kit. The results are shown in the following Table 2, wherein the biosynthesis activity is expressed based on the biosynthesis activity of non-treated group, taken as 100.

collagenase = experiment: Effect of inhibiting collagenase expression; type: cell-based; details: Human fibroblasts, 10˜4M in serum-free DMEM, non-treated group taken as 100; for activity at 100 µM: Fibroblast
Protocol: The hydroxybenzamide compounds according to Examples 1˜8 were determined for their effects of inhibiting collagenase expression, and the results were compared to the effects obtained from resveratrol and tocopherol.
Human fibroblasts were introduced into a 96-well microtiter plate containing a DMEM (Dulbecco's Modified Eagle's Media) with 2.5% fetal bovine serum (FBS) in a cell count of 5,000 cells per well and cultured to a growth level of 90%. Then, the cultured product was further cultured in a serum-free DMEM medium for 24 hours. Next, the cultured product was treated with the hydroxybenzamide compounds according to Examples 18, resveratrol and tocopherol, dissolved in a serum-free DMEM medium at a concentration of 10˜4M, and then the cell culture was collected. The cell culture was evaluated for the production of collagenase by using a commercially available collagenase measuring system (Amersham Pharmacia, USA). First, the cell culture was introduced into a 96-well plate coated uniformly with primary collagenase antibodies, and then an antigen-antibody reaction was carried out in an incubator for 3 hours. After 3 hours, secondary collagenase antibodies, to which chromophores were bound, were introduced into the 96-well plate, and the reaction was further carried out for 15 minutes. After 15 minutes, a color developer was added thereto to develop a color at room temperature for 15 minutes, and 1M sulfuric acid was further added thereto to quench the reaction (color development). […] The yellow-colored 96-well plate was measured for absorptivity at 405 nm by using an absorption spectrometer, and a degree of collagenase synthesis was calculated according to the following Mathematical Formula 1. At this time, absorptivity of the cell culture in a non-treated group was used as a control.
Collagenase expression (%)=Absorptivity of the group treated with the corresponding sample/Absorptivity of the control×100 [Mathematical Formula 1]
The collagenase expression inhibiting activity was expressed based on the collagenase synthesis activity of the non-treated group, taken as 100.

[2] = Thermal stability according to isothermal discoloration test; type: physicochemical; parameters: key: 1: no discoloration; 2: discoloration into a light yellow color; 3: discoloration into a dark yellow color; 4: discoloration into a dark brown color; details: 1000 pm in dimethylformaldehyde:ethanol:water=5:3:2, 40° C., naked eyes
Protocol: The hydroxybenzamide compounds according to Examples 18 were determined for their thermal stability as compared to resveratrol.
The test was performed by dissolving each of the hydroxybenzamide compounds according to Examples 1˜8 into a test solvent (dimethylformaldehyde:ethanol:water=5:3:2) in a concentration of 1000 pm, and by allowing the test samples to be left in an isothermal chamber at 40° C. for a test period of 30, 60 and 90 days. Then, the test samples were observed by the naked eyes to determine discoloration degrees.
Discoloration of the samples was graded into Grade 1 Grade 4 as follows:
2: discoloration into a light yellow color
3: discoloration into a dark yellow color
4: discoloration into a dark brown color

[3] = HaCaT cells, sample at 10˜4 mol for 24 hours, then t-BHT 4 hours, non-treated group = 100

Row | Compound | activity at 100 µM [1, 3] | activity at 10 µM (procollagen type(I)) | activity at 100 µM (collagenase) | Discoloration after 30 days [2] | Discoloration after 60 days [2] | Discoloration After 90 days [2] | Lipid peroxidation (%) [1, 3] | Collagen biosynthesis activity (%) (procollagen type(I)) | Collagenase expression (%) (collagenase) | activity at 100 µM ([1]; HaCaT, 24 h)
1 | COc1cc(NC(=O)c2cc(O)cc(O)c2)cc(OC)c1 [Ex. 6, 3,5-dihydroxy-N-(3,5-dimethoxyphenyl)benzamide] | 172% | 116% | 71% | 1 | 1 | 1 |  |  |  | 
2 | COc1ccc(NC(=O)c2cc(O)cc(O)c2)cc1 [Ex. 4, 3,5-dihydroxy-N-(4-methoxyphenyl)benzamide] | 186% | 118% | 74% | 1 | 1 | 1 |  |  |  | 
3 | O=C(Nc1cccc(O)c1)c1cc(O)cc(O)c1 [Ex. 3, 3,5-dihydroxy-N-(3-hydroxyphenyl)benzamide] | 182% | 122% | 71% | 1 | 1 | 1 |  |  |  | 
4 | COc1cc(NC(=O)c2cc(O)cc(O)c2)cc(OC)c1OC [Ex. 7, 3,5-dihydroxy-N-(3,4,5-trimethoxyphenyl)benzamide] | 179% | 119% | 70% | 1 | 1 | 1 |  |  |  | 
5 | COc1ccc(NC(=O)c2cc(O)cc(O)c2)cc1OC [Ex. 5, 3,5-dihydroxy-N-(3,4-dimethoxyphenyl)benzamide] | 176% | 115% | 72% | 1 | 1 | 1 |  |  |  | 
6 | Oc1ccc(C=Cc2cc(O)cc(O)c2)cc1 [Resveratrol, reference compound] | 178% | 111% | 81% | 2 | 3 | 4 |  |  |  | 
7 | O=C(Nc1ccccc1O)c1cc(O)cc(O)c1 [Ex. 2, 3,5-dihydroxy-N-(2-hydroxyphenyl)benzamide] | 180% | 121% | 69% | 1 | 1 | 1 |  |  |  | 
8 | O=C(Nc1ccc(O)cc1)c1cc(O)cc(O)c1 [Ex. 1, 3,5-dihydroxy-N-(4-hydroxyphenyl)benzamide] | 170% | 143% | 67% | 1 | 1 | 1 |  |  |  | 
9 | COc1ccc(NC(=O)c2cc(O)cc(O)c2)cc1O [Ex. 8, 3,5-dihydroxy-N-(3-hydroxy-4-methoxyphenyl)benzamide] | 181% | 120% | 69% | 1 | 1 | 1 |  |  |  | 
10 | Tocopherol [reference compound] |  |  |  |  |  |  | 250% | 113% | 95% | 
11 | CC(C)(C)OO [t-BHT, t-butyl hydroperoxide, reference compound] |  |  |  |  |  |  |  |  |  | 320%
